The target of test [1] is 5-hydroxytryptamine receptor 5A (Homo sapiens, UniProt P47898). Briefly: Counterscreen for agonists of OPRM1-OPRD1 heterodimerization: luminescence-based cell-based high throughput dose response assay to identify agonists of 5-hydroxytryptamine (serotonin) 5A receptor (HTR5A). [Related pubchem assays (depositor defined):AID504326, AID504355, AID504692, AID504904, AID504905]. The test is classed as functional. (The purpose of a counterscreen is to sort out artefacts and off-target activity.)

Another test addresses T1, Bcl-2-related protein A1 (Mus musculus, UniProt Q07440).
T1 sequence (Q07440 whole entry): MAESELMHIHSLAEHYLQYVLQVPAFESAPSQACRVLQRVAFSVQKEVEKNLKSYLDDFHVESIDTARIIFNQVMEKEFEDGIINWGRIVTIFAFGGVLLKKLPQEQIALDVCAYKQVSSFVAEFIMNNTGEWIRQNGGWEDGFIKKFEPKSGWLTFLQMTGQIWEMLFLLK
Description: small-molecule antagonists of Bfl-1/BH3 interaction – biochemical, TR-FRET, mouse Bfl-1, confirmation (AID 621).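 Note: TR-FRET binding of GST-Bfl-1 to FITC-labelled Bid peptide via terbium antibody.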 On the technique in general: Time-resolved FRET reads energy transfer from a long-lived donor to a nearby acceptor.

Test [2] has as its target Dual specificity protein phosphatase 6 (Rattus norvegicus, UniProt Q64346). Description: inhibition of rat DUSP6 enzyme activity – biochemical, in vitro, primary screen (AID 425).
Test [3] addresses T2, Sentrin-specific protease 6 (Homo sapiens, UniProt Q9GZR1).
T2 sequence (Q9GZR1 whole entry): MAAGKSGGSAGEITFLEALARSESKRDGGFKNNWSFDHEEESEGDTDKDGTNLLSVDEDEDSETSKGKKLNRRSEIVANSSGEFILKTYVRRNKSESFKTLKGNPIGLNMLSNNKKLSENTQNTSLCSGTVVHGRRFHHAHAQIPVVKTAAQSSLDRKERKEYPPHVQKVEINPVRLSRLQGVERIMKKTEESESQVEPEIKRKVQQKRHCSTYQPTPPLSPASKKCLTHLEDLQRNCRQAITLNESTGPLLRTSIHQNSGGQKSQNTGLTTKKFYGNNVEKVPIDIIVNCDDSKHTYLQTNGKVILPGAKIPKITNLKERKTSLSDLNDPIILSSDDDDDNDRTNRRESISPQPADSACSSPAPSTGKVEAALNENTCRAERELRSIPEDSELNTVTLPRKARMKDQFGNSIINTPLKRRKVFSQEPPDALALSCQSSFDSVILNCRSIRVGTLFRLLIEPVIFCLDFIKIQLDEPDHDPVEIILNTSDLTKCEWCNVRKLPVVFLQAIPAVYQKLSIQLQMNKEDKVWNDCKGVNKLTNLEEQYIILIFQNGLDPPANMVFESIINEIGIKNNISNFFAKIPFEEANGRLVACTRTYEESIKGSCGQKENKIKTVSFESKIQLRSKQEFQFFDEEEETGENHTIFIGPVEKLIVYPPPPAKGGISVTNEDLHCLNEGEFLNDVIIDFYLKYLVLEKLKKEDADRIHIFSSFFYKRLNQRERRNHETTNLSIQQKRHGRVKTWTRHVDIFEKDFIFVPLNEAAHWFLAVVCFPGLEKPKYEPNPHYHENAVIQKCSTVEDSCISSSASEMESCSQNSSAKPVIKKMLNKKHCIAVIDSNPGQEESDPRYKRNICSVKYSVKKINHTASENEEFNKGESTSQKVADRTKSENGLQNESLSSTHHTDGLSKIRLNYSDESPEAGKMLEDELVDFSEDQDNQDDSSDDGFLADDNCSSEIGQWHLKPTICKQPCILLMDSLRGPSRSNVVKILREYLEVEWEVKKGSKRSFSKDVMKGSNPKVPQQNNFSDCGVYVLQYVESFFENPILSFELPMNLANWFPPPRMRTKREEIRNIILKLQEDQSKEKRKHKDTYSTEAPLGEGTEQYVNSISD
The class given is functional.

A further test addresses Large T antigen (Simian virus 40, UniProt P03070). The test is classed as functional, Betapolyomavirus macacae.
Test [4] concerns the target T3, Mannose-6-phosphate isomerase (Homo sapiens, UniProt P34949).
T3 sequence (P34949 whole entry): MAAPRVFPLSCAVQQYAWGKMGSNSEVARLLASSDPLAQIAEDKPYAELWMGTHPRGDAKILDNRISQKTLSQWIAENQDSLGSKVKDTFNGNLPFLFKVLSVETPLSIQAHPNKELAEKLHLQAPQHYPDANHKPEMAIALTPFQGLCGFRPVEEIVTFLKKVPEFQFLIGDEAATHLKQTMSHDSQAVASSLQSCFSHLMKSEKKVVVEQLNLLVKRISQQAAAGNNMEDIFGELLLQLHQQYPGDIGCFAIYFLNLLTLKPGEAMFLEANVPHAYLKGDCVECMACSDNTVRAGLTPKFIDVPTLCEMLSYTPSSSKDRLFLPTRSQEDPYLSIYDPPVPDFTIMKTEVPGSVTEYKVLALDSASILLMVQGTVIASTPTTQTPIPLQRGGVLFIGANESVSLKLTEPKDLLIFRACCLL
Description: MPI inhibition at elevated mannose 6-phosphate – biochemical, fluorescence intensity, high mannose 6-phosphate, primary screen (AID 1220).

Calls of active or inactive are those of the source. Bounds are passed on as bounds.

Chain of Dual specificity protein phosphatase 6 (Q64346 whole entry): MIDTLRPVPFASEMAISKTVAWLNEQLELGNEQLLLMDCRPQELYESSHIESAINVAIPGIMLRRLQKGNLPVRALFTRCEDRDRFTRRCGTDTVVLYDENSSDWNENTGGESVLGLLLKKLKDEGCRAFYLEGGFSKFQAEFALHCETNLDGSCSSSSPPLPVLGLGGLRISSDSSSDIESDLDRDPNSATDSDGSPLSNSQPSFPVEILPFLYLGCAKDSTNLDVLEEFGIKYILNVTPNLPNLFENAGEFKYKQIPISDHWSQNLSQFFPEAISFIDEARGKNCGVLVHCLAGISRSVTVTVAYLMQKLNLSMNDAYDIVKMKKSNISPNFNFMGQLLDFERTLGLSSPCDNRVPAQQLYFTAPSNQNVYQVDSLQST
Chain of Large T antigen (P03070 whole entry): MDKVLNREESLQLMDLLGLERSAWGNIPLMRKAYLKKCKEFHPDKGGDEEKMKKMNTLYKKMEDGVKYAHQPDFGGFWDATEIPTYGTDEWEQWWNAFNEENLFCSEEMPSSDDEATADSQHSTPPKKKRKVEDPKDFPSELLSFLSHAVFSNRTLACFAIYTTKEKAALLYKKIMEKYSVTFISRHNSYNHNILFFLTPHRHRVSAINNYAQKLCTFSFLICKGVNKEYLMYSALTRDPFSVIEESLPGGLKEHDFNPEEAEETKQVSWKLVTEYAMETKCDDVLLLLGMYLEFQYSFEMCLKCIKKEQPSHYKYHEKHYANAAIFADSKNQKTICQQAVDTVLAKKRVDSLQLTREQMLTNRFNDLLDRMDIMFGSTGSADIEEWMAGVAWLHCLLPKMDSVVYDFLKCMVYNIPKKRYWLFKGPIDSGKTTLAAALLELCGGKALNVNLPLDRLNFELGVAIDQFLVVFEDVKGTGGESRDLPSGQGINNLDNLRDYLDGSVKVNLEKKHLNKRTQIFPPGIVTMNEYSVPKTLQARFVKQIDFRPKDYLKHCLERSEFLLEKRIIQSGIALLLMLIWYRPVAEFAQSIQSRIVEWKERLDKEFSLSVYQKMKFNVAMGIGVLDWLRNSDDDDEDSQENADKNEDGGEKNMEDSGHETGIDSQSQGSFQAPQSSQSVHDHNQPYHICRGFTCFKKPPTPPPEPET
Chain of 5-hydroxytryptamine receptor 5A (P47898 whole entry): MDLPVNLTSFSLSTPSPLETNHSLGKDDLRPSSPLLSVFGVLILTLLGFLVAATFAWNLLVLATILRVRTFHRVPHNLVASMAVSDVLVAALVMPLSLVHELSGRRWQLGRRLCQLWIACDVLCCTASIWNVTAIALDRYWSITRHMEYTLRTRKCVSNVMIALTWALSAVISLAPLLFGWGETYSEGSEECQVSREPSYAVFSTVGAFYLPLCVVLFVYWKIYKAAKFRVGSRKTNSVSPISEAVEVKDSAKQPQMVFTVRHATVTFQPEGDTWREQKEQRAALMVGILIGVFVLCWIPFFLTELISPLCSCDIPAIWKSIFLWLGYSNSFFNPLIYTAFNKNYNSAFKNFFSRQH

One may read the EC50 as the concentration giving half of the maximal effect. Take `CCCCCCCCCCOC(=O)C[n+]1c(COc2ccccc2C)n(C)c2ccccc21`: the EC50 in test [1] was > 92.5 µM (inactive).

As a reminder, the IC50 is the point on the concentration scale where inhibition reaches its midpoint. `Oc1nc(Nc2ccccc2)cc2ccccc12`: the IC50 at Bcl-2-related protein A1 is > 100 µM (not active); in test [2], > 100 µM (not active); in test [3], 0.345 µM (active).

Turning to `COc1cc(OC)c(-c2c3cc(O)c(=O)cc-3oc3cc(O)c(O)cc23)cc1OC`, the IC50 on Large T antigen was 1.73 µM (active); in test [4], > 50 µM (not active).

Source of the values: ChEMBL document CHEMBL1201862, “PubChem BioAssay data set” (2004).
